Source: PubChem BioAssay AID449750 (Broad Institute, 2010)
The source made the active and inactive calls. The rule behind the calls is not given here.

Assay: non-covalent RecA intein splicing inhibitors, dose response, biochemical, cell-free, fluorescence, secondary screen (AID 449750)
In the case of COC(=O)CSc1nc(N)c2c3c(sc2n1)C(c1ccccc1)SC(c1ccccc1)C3 (stereo not drawn), the AC50 is reported as > 38 µM (inactive). With O=C1c2ccccc2C(=O)c2c1ncn2-c1ccccc1 the AC50 was > 38 µM (inactive). With Cc1cc(C(=O)Cn2ncc(Cl)c(Cl)c2=O)c(C)n1CC(F)(F)F the AC50 was > 38 µM (inactive). Work on c1ccc2[nH]c3cc4ncnc4cc3nc2c1 yielded an AC50 of 37.5 µM. For C/C(CC(=O)Nc1ccccn1)=N\NC(=O)c1cccc(C)c1, the AC50 was > 38 µM (inactive). For Cc1nc2c(-c3ccc(F)cc3)c(C)[nH]n2c(=O)c1Cl, the AC50 was > 38 µM (inactive). For CN1C=C/C(=C\c2cc[n+](C)c3ccccc23)c2ccccc21, the AC50 was 29.3 µM. With O=C(c1c[nH]c(C(=O)C(Cl)(Cl)Cl)c1)c1ccccc1Br the AC50 was 24.8 µM. With COc1cc(/C=C2\C(=O)N(c3ccc(S(N)(=O)=O)cc3)N=C2C)ccc1OC(=O)c1ccco1 the AC50 was 21 µM. In the case of CC1(C)Cc2ccccc2C2=NNC(=O)C2=N1, the AC50 is reported as 11 µM. In the case of Cc1cc2c(N)cccc2nn1, the AC50 is reported as > 38 µM (inactive). OC(COC(c1ccc(Cl)cc1)c1ccc(Cl)cc1)CN1CCc2ccccc2C1 (stereo not drawn) showed an AC50 of 3.84 µM. In the case of CN(C)CCSc1nnc2[nH]c3ccccc3c2n1, the AC50 is reported as > 38 µM (inactive). In the case of O=C(NCc1ccccc1)c1nc(S(=O)(=O)Cc2ccccc2)ncc1Cl, the AC50 is reported as > 38 µM (inactive). In the case of CC(=O)c1cc(O)c2ccccc2c1O, the AC50 is reported as 13.3 µM. For CN1CCN(C(c2ccc(C(F)(F)F)cc2)c2cc(Cl)c3cccnc3c2O)CC1 (stereo not drawn), the AC50 was > 38 µM (inactive). For Clc1ncnc2scc(C3COc4ccccc4O3)c12 (stereo not drawn), the AC50 was 7.28 µM. In the case of COc1cc(/C=N\NC(=O)c2ccccc2F)ccc1Oc1ccc([N+](=O)[O-])cn1, the AC50 is reported as > 38 µM (inactive). With Nc1nc(CCl)nc(Nc2ccc3ccccc3c2)n1 the AC50 was 15.7 µM. Work on CCOC(=O)c1c(OCC)[nH]c2c1cc(O)c1ccccc12 yielded an AC50 of 32.1 µM. Compound Cn1cnc([N+](=O)[O-])c1S(=O)(=O)c1cccc(Cl)c1 has an AC50 of 30 µM. Work on CC(=O)c1cccc(-c2ccc3c(=O)[nH]c(Nc4ccccc4)cc3c2)c1 yielded an AC50 of 6.06 µM. For COc1cc(/C=N/NC(=O)CC2(C)OCCCO2)ccc1OCc1ccccc1, the AC50 was > 38 µM (inactive). CCN(CC)c1ccc(/C=C2\C(=O)N(c3nnc(C)c(=O)[nH]3)N=C2C)cc1 showed an AC50 of 5.67 µM. With CCS(=O)(=O)C1=NN2C(=N)/C(=C\c3ccc(OC(=O)c4ccco4)cc3)C(=O)N=C2S1 the AC50 was > 38 µM (inactive). In the case of Cn1c(SCC(=O)NCC2CCCO2)ncc(C(=O)Nc2ccc(F)cc2)c1=O (stereo not drawn), the AC50 is reported as 7.58 µM. With Oc1ccc(O)c2c1C1c3ccccc3C2c2ccccc21 the AC50 was 38.4 µM. With COc1cc(NCCCCCCCN)c2ncccc2c1 the AC50 was 13.6 µM. Work on C=CCOc1ccccc1CN(C(=O)CCl)c1ccc2c(c1)OCO2 yielded an AC50 of 1.28 µM. CC1=CC2(O)OCCN(CCO)C2=CC1=O (stereo not drawn) showed an AC50 of 13.5 µM. In the case of O=C(CCl)Nc1cccc(S(=O)(=O)N2CCCCCC2)c1, the AC50 is reported as > 38 µM (inactive). In the case of O=C1CCCC2=C1C1(O)C(=O)c3ccccc3C1(O)O2 (stereo not drawn), the AC50 is reported as 7.79 µM. In the case of CC1=NN(c2ccccc2)C(=O)/C1=C/c1c(O)n(-c2ccc(F)c(Cl)c2)[nH]c1=O, the AC50 is reported as 10.3 µM. COc1ccc(N(C(=O)CCl)C(C(=O)NCCc2ccccc2)c2cccs2)cc1Cl (stereo not drawn) gave an AC50 of 0.672 µM. With Cc1cc(C)c(S(C)(=O)=O)c(Oc2cccc(C(F)(F)F)c2)n1 the AC50 was > 38 µM (inactive). Compound COc1ccc(Nc2ccc3c(c2)=NC2(CCCCC2)[N+]=3[O-])cc1 has an AC50 of 15 µM. With CC1=NN(c2ccc(F)cc2)C(=O)C1C(c1cccc(O)c1)c1c(C)[nH]n(-c2ccc(F)cc2)c1=O (stereo not drawn) the AC50 was 2.89 µM. With CC(=O)Nc1ccc(OC(=O)c2ccco2)cc1 the AC50 was > 38 µM (inactive). O=C(NC1CCCCC1)C(c1cccnc1)N(C(=O)CCl)c1ccc(F)cc1 (stereo not drawn) gave an AC50 of 5.58 µM. With CC(C)C[C@H](N)c1nnc(S(=O)(=O)Cc2ccc(F)cc2)o1 the AC50 was > 38 µM (inactive). CC(C)(C)c1cc(C(=O)CCN2CCOCC2)cc(C(C)(C)C)c1O gave an AC50 of 12.1 µM. For C=C(C)CNC(=S)N=Nc1c(O)[nH]c2ccc([N+](=O)[O-])cc12, the AC50 was > 38 µM (inactive). For COc1ccc(Nc2cnn(-c3nc4ccccc4s3)c(=O)c2Cl)cc1, the AC50 was > 38 µM (inactive). In the case of Cc1ccc(CS(=O)(=O)c2ncc(Cl)c(C(=O)Nc3nnc(C)s3)n2)cc1, the AC50 is reported as > 38 µM (inactive). Work on O=[N+]([O-])c1cc([N+](=O)[O-])c2c(=Nc3ccccc3)n(-c3ccccc3)n(O)c2c1 yielded an AC50 of 21.7 µM. With CS(=O)(=O)N1CCC(Oc2ccccc2C(=O)N2CCCCC2CO)CC1 (stereo not drawn) the AC50 was > 38 µM (inactive). With CC(C)CC(NC(=O)CCl)c1ccccc1 (stereo not drawn) the AC50 was 5.47 µM. Compound CCc1nc(N2CCN(C(=O)CCl)CC2)c2c3c(sc2n1)CC(C)CC3 (stereo not drawn) has an AC50 of 2 µM. With Cc1ccc(NC(=O)C2=C(c3ccccc3)S(=O)(=O)CCS2(=O)=O)cc1 the AC50 was > 38 µM (inactive). With CC1(C)C=C2C(=NN(c3ccccc3)C(N)=C2C#N)CO1 the AC50 was 3.43 µM. With CC1CCCN(C(=O)COc2ccc(NC(=O)c3cccs3)cc2)C1 (stereo not drawn) the AC50 was > 38 µM (inactive). Cc1ccc(C2CC(c3cccs3)=NN2C(=O)CCl)cc1 (stereo not drawn) showed an AC50 of 1.68 µM. In the case of O=C(N/N=C/c1ccc(OC(=O)c2ccco2)cc1)c1ccc[n+]([O-])c1, the AC50 is reported as > 38 µM (inactive).
